# Reference: patent US11673886B2, “5-membered and bicyclic heterocyclic amides as inhibitors of ROCK” (BRISTOL-MYERS SQUIBB COMPANY, priority 2017, dated 2023)
# Molecular target: ROCK2 (Homo sapiens (Human), UniProt O75116)
# Assay: ROCK2 assay (kinase inhibition, FITC peptide substrate, LABCHIP 3000 Reader)
# Type: biochemical
# Details: 5 μM ATP, 1.5 μM peptide substrate
# Sequence of ROCK2 (O75116 whole entry, species assumed): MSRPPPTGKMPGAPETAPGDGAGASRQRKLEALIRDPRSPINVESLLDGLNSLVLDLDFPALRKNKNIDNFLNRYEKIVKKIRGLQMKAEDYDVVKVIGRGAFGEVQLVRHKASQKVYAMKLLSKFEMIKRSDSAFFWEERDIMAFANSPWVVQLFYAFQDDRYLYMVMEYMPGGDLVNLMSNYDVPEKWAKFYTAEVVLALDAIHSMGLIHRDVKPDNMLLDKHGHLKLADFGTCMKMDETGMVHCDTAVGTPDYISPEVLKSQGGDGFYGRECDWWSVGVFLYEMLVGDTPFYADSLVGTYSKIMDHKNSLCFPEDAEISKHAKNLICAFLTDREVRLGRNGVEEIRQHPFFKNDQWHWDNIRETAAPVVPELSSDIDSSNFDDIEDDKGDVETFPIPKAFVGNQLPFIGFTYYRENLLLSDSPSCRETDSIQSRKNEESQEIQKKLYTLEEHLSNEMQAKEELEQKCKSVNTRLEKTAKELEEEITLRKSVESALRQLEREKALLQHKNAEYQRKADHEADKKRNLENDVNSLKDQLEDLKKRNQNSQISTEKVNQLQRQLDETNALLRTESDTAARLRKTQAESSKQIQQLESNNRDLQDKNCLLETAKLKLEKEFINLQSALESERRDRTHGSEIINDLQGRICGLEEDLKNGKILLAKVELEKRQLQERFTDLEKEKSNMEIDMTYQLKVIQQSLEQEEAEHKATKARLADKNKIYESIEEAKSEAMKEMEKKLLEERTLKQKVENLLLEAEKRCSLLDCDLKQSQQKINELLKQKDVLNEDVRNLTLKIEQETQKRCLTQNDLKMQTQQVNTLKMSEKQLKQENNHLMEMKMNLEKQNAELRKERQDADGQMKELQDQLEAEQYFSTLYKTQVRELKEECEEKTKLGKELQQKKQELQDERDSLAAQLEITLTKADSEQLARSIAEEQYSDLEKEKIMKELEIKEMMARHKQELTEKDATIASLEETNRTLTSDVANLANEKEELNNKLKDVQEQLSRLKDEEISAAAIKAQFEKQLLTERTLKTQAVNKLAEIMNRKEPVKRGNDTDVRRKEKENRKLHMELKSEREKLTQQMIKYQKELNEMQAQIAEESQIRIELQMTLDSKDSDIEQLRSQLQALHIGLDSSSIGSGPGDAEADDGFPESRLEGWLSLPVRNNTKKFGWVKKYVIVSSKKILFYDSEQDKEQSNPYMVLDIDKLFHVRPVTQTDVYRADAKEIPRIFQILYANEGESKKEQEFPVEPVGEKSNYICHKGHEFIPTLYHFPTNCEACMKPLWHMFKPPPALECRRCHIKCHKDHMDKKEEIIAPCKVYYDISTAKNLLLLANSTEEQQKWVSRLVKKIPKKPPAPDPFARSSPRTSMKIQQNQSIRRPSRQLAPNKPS
row,IC50 [nM],Compound
1,20,"[H][C@]1(Oc2c(C(N)=O)sc3ccccc23)C[C@]2(C[C@@H](NC(=O)c3cnn4c(C5CC5)c(OCC(C)(C)O)ccc34)C2)C1 (stereo partly drawn) [Example 2, N-((aR)-6-((2-Carbamoylbenzo[b]thiophen-3-yl)oxy)spiro[3.3]heptan-2-yl)-7-cyclopropyl-6-(2-hydroxy-2-methylpropoxy)pyrazolo[1,5-a]pyridine-3-carboxamide]"
2,330,"2-cyclopropyl-4- {[(aR)-6-{4-[(1R)- 1-hydroxyethyl]- 2,5- dioxoimidazolidin- 1- yl}spiro[3.3]heptan- 2-yl]oxy}-1,3- thiazole-5- carboxamide [Example 109]"
3,162,"Cc1sc2cc(C(N)=O)c(O[C@H]3C[C@@]4(C[C@H](NC(=O)c5nnc(NCC(C)C)s5)C4)C3)nc2c1C (stereo partly drawn) [Example 162, 5-[(2-methylpropyl)amino]-N-[(4s)-6-({6-carbamoyl-2,3-dimethylthieno[3,2-b]pyridin-5-yl}oxy)spiro[3.3]heptan-2-yl]-1,3,4-thiadiazole-2-carboxamide]"
4,11.6,"NC(=O)c1sc(C2CC2)nc1O[C@H]1C[C@@]2(C[C@H](NC(=O)c3cnn4cc(OCC(F)(F)F)ccc34)C2)C1 (stereo partly drawn) [Example 62, 2-cyclopropyl-4-{[(aR)-6-[6-(2,2,2-trifluoroethoxy)pyra-zolo[1,5-a]pyridine-3-amido]spiro[3.3]hep-tan-2-yl]oxy}-1,3-thiazole-5-carboxamide]"
5,551,"CC(C)(O)COc1ccc2c(C(=O)N[C@H]3C[C@]4(C3)C[C@H](Oc3c(C(N)=O)cnn3CCCN)C4)cnn2c1C1CC1 (stereo partly drawn) [Example 28, 1-(3-aminopropyl)-5-({(aR)-6-[7-cyclopropyl-6-(2-hydroxy-2-methylpropoxy)pyra-zolo[1,5-a]pyridine-3-amido]spiro[3.3]hep-tan-2-yl}oxy)-1H-pyrazole-4-carboxamide]"

row,Compound,IC50 [nM]
1,"COCCn1cc(C(N)=O)c(O[C@H]2CC3(C[C@H](NC(=O)c4cnn5c(C6CC6)c(OCC(C)(C)O)ccc45)C3)C2)n1 (stereo partly drawn) [Example 23, 3-({(aR)-6-[7-cyclopropyl-6-(2-hydroxy-2-methylpropoxy)pyra-zolo[1,5-a]pyridine-3-amido]spiro[3.3]hep-tan-2-yl}oxy)-1-(2-methoxyethyl)-1H-pyrazole-4-carboxamide]",77.7
2,"CCn1cc(C(N)=O)c(O[C@H]2CC3(C[C@H](NC(=O)c4cnn5c(C6CC6)c(OCC(C)(C)O)ccc45)C3)C2)n1 (stereo partly drawn) [Example 19, 3-({(aR)-6-[7-cyclopropyl-6-(2-hydroxy-2-methylpropoxy)pyra-zolo[1,5-a]pyridine-3-amido]spiro[3.3]hep-tan-2-yl}oxy)-1-ethyl-1H-pyrazole-4-carboxamide]",10.5
3,"NC(=O)c1c(O[C@H]2CC3(C[C@H](NC(=O)c4cnn5cc(OCC(F)F)ccc45)C3)C2)nn2ccccc12 (stereo partly drawn) [Example 122, 2-{[(4s)-6-[6-(2,2-difluoroethoxy)pyrazolo[1,5-a]pyridine-3-amido]spiro[3.3]heptan-2-yl]oxy}pyrazolo[1,5-a]pyridine-3-carboxamide]",117
4,"Cc1ccn2nc(O[C@H]3CC4(C[C@H](NC(=O)c5nn(C(F)F)c6cc(OCC(C)(C)O)ccc56)C4)C3)c(C(N)=O)c2c1 (stereo partly drawn) [Example 132, 1-(difluoromethyl)-6-(2-hydroxy-2-methylpropoxy)-N-[(4s)-6-({3-carbamoyl-5-methylpyrazolo[1,5-a]pyridin-2-yl}oxy)spiro[3.3]heptan-2-yl]-1H-indazole-3-carboxamide]",223

# System: ROCK
# Assay: not given
# Details: long term treatment; cited from earlier work
Compound,coronary constrictive remodeling,coronary stenosis
O=S(=O)(c1cccc2cnccc12)N1CCCNCC1 [fasudil],promote a regression of coronary constrictive remodeling,progressively reduce coronary stenosis

# System: ROCK
# Assay: not given
# Details: rat, in vivo; cited from earlier work
row,Compound,infarct size and neurologic deficit
1,O=S(=O)(c1cccc2cnccc12)N1CCCNCC1 [fasudil],reduce both the infarct size and neurologic deficit
